Measured values published in PMC10788917 (Journal of Medicinal Chemistry, 2023).
Read-outs that look alike come from different tables or passages of the source.

Key:
Test in all cases: CellTiter-Blue cell viability assay
Format in all cases: cell-based
MV4-11 cells = settings: Homo sapiens, 72 h, HDAC8-dependent line, Figure 7B
Procedure: (§1) All cell lines were purchased from DSMZ (Braunschweig, Germany). The cell lines were regularly tested to exclude mycoplasma contamination and authenticated. […] Media were supplemented with 10% fetal calf serum (FCS), 10 units/mL penicillin, 10 μg/mL streptomycin, and 2 mM L-glutamine (all Gibco, Thermo Fisher Scientific).
(§2) To determine the IC50 of the selected compounds on the cell lines, the CellTiter-Blue cell viability assay (Promega) was performed. For this, cells were seeded in 96-well flat-bottom plates at a cell density of 10 000 cells/well. Cells were treated in triplicate with the compound of interest at various concentrations or with 10 μM Bortezomib (S1013; Selleck Chemicals, Houston, TX), as a positive control. […] Plates were measured using a GloMax plate reader (Promega), and IC50 values were determined by nonlinear regression using GraphPad Prism version 9.1.1 (GraphPad Software, Inc.), and the data are reported as mean values ± the standard error of the mean.

SET2 cells = settings: Homo sapiens, SET-2; 72 h, HDAC8-independent line, Figure 7B
Procedure: as §1, §2

THP-1 cells = settings: Homo sapiens, 72 h
Procedure: as §1, §2

HEL cells = settings: Homo sapiens, 72 h, HDAC8-independent line, Figure 7B
Procedure: as §1, §2

MOLM-13 cells = settings: Homo sapiens, 72 h, HDAC8-dependent line, Figure 7B
Procedure: as §1, §2

OCI-AML3 cells = settings: Homo sapiens, OCI-AML-3; 72 h, HDAC8-dependent line, Figure 7B
Procedure: as §1, §2

IC50 (MV4-11 cells): 8.23 ± 0.12 µM
IC50 (THP-1 cells; Figure 7A, read-out: cell viability IC50, THP-1): 46.5 µM
IC50 (THP-1 cells; HDAC8-independent line, Figure 7B, read-out: THP-1 IC50): 78.1 ± 32.8 µM
IC50 (MOLM-13 cells): 7.08 ± 1.07 µM
IC50 (OCI-AML3 cells): 27.2 ± 5.86 µM
SMILES: C#Cc1c[n+](C)ccc1NC(=O)CC(=O)N1Cc2ccccc2C1.[I-] [compound 3, 3-Ethynyl-4-[3-(isoindolin-2-yl)-3-oxopropanamido]-1-methylpyridin-1-ium Iodide]
IC50 (SET2 cells): > 200 µM
IC50 (HEL cells): > 200 µM
